For one molecule, IC50 results are on record in paper PMC10054552, “Phototoxic Potential of Different DNA Intercalators for Skin Cancer Therapy: In Vitro Screening” (International Journal of Molecular Sciences, 2023).

Like-named read-outs stand apart in the source and are kept apart here.

This assay concerns WM983b cells. In words: Phototoxicity assay in WM983b cells (irradiation 2.5 J/cm², resazurin). The note with it: Homo sapiens, light or radiation study, treated 24 h. It counts as cell-based. An excerpt:
The MET1 SCC cell line (human squamous cell carcinoma) was obtained from Ximbio (London, UK), HaCaT (immortalized human keratinocytes cell line) was obtained from Addexbio (San Diego, CA, USA) and WM983b (human metastatic melanoma cell line) was obtained from Rockland (Pottstown, PA, USA). Cells were maintained in Dulbecco’s Modified Eagle Medium (DMEM) supplemented with 10% (v/v) fetal bovine serum (FBS) for MET1 and HaCaT and 5% (v/v) for WM983b cells, and Pen–Strep (penicillin 100 U/mL and streptomycin 100 µg/mL). Cells were cultivated in an incubator (Sanyo MCO-19AIC-UV) at 37 °C in a 5% CO2 humidified atmosphere.
For the phototoxicity studies, 96-well plates were seeded with MET1 cells at a density of 20,000 cells/cm², incubated overnight and treated for 24 h with MB, AO, GV, QT, CUR, EGCG, PHE, NEO and BIPY diluted in culture medium in a concentration range of 1.25 µM to 40 µM (in sextuplicate). […] Cells cultured with complete medium and cells cultured with medium supplemented with 0.2% (v/v) or 10% (v/v) of DMSO were used as negative (NC), solvent (SC) and positive control (PC), respectively. The plates were incubated for 24 h, followed by washing with PBS supplemented with calcium and magnesium. Afterwards, complete culture medium without phenol red was added, and the plates were irradiated from above and submitted to a dose of 2.5 J/cm² of irradiation emitted by different wavelength light sources coupled with a homemade irradiation system created in our laboratory. These light sources consisted of an equivalent 26 cm UV tubular lamp (254 nm) (Phillips TUV PLS 9W/2PHg) and a tricolor LED lamp (Led Grow Light Bulb E26/E27) with intensity peaks at 457 nm (blue light), 583 nm (yellow light) and 640 nm (red light) provided by 18, 18 and 28 LEDs, respectively, with dimensions of 3 × 3 mm^2. The irradiance values of light at 254, 457, 583 and 640 nm wavelengths were of 16.7, 55, 45 and 25 W/m^2, respectively. This experiment was performed in an incubator that was able to keep plates in a dark environment; therefore, the dark control plates were protected from any light source, as well as the others, with the exception of the irradiation that each one was submitted to. Plates were incubated for another 24 h, and finally, the resazurin assay was performed as previously described in Section 3.3. For the phototoxicity study using WM983b cells, plates were prepared at a cell density of 40,000 cells/cm², and cells were treated with MB and AO only.
On the technique in general: The colour change of resazurin is a common sign of viable cells or microbes.

In general, IC50 refers to the concentration at which inhibition is half-maximal. As to `CN(C)c1ccc2cc3ccc(N(C)C)cc3nc2c1` [Acridine orange, acridine orange], the IC50 is 1.1 µM (457 nm light, 2.5 J/cm², read-out: IC50 irradiated samples (457 nm)) and 17.5 µM (without irradiation, read-out: IC50 non-irradiated samples).
